Values belong to the compound of their own block, whether it stands above or below them.
Columns and labels:
D3R [1] = target: T1, D3R (Homo sapiens, UniProt P35462); assay: Radioligand binding, [125I]IABN, HEK cells expressing human D3; conditions: for D2/D3 ratio: (Ki for D2 receptors)/(Ki for D3 receptors)
human D2 (long) = human D2 (long) (Homo sapiens, UniProt P14416); assay: Radioligand binding, [125I]IABN, HEK cells expressing human D2; conditions: human D2 in HEK cells, mean ± SEM, at least three experiments
α2β4 = α2β4 (Rattus norvegicus, UniProt P12389+P12392); assay: PDSP binding, α2β4; conditions: read-out: inhibition in primary assay at 10 μM
α2β2 = α2β2 (Rattus norvegicus, UniProt P12389+P12390); assay: PDSP binding, α2β2; conditions: read-out: inhibition in primary assay at 10 μM
α3β2 = α3β2 (Rattus norvegicus, UniProt P04757+P12390); assay: PDSP binding, α3β2; conditions: read-out: inhibition in primary assay at 10 μM
D3R [2] = target: T1, D3R; assay: Dopamine-mediated β-arrestin 2 recruitment assay; format: cell-based; conditions: DA as orthosteric ligand
[3] = target: serotonin subclass receptors; assay: PDSP binding, serotonin subclass receptors; conditions: read-out: Ki for all of the serotonin subclass receptors
α4β4 = α4β4 (Rattus norvegicus, UniProt P09483+P12392); assay: PDSP binding, α4β4; conditions: read-out: inhibition in primary assay at 10 μM
D3R [4] = target: T1, D3R; assay: PDSP β-arrestin recruitment Tango assay, D3R; format: cell-based; conditions: Tango assays, agonist and antagonist mode
D2R = D2R (Homo sapiens, UniProt P14416); assay: PDSP β-arrestin recruitment Tango assay, D2R; format: cell-based; conditions: Tango assays, agonist and antagonist mode
α3β4 = α3β4 (Rattus norvegicus, UniProt P04757+P12392); assay: PDSP binding, α3β4; conditions: read-out: inhibition in primary assay at 10 μM
Sequence of α3β4 (P04757 26-499): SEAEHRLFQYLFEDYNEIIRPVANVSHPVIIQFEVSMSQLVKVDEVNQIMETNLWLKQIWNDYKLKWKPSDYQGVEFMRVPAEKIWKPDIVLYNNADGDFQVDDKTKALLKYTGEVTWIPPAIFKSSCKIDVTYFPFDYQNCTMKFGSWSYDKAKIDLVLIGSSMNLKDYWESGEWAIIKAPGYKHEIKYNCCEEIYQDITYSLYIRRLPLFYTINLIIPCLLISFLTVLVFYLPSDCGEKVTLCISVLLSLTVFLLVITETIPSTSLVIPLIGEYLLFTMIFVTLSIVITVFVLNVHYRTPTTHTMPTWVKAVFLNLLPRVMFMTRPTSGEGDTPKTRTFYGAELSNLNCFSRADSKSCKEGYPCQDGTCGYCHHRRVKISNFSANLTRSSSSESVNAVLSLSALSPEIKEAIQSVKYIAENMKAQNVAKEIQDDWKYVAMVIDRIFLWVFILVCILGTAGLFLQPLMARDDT
Sequence of α3β4 (P12392 21-495): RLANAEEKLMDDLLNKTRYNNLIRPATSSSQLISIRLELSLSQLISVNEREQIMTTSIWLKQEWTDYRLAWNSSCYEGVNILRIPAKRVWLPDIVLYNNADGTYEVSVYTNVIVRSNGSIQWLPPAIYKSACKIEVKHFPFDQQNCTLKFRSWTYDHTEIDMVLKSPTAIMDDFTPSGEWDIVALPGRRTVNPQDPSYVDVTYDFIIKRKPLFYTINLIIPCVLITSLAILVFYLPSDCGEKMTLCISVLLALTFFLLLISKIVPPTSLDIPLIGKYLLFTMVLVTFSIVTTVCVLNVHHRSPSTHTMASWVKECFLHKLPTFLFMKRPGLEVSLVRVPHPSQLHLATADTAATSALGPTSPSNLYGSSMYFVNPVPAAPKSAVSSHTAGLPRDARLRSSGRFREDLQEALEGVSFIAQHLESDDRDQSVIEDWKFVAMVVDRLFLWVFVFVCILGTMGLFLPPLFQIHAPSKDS

T1 sequence (P35462 whole entry): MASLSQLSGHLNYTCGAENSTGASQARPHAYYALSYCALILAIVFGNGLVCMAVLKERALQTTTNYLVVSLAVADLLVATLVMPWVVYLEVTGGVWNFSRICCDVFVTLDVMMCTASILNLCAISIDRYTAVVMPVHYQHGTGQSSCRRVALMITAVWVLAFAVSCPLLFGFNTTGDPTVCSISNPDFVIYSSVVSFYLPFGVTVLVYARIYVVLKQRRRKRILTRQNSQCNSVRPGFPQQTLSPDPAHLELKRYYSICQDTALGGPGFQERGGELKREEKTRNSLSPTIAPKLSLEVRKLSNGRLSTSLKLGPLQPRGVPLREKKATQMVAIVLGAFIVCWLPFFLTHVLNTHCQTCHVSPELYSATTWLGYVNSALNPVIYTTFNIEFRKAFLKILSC
Sequence of α2β2 (P12389 28-511): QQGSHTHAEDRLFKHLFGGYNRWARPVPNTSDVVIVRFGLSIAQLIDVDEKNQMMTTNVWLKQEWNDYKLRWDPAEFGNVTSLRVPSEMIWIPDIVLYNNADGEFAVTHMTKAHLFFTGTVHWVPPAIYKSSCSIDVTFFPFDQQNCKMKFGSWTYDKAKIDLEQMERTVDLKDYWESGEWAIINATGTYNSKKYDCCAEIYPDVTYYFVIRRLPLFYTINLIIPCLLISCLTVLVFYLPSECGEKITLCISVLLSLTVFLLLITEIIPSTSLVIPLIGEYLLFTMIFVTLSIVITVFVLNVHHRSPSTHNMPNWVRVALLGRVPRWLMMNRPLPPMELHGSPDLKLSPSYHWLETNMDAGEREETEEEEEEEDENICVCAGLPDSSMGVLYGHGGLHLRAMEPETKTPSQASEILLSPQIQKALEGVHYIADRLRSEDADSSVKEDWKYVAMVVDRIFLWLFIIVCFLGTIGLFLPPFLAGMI
Sequence of α2β2 (P12390 25-500): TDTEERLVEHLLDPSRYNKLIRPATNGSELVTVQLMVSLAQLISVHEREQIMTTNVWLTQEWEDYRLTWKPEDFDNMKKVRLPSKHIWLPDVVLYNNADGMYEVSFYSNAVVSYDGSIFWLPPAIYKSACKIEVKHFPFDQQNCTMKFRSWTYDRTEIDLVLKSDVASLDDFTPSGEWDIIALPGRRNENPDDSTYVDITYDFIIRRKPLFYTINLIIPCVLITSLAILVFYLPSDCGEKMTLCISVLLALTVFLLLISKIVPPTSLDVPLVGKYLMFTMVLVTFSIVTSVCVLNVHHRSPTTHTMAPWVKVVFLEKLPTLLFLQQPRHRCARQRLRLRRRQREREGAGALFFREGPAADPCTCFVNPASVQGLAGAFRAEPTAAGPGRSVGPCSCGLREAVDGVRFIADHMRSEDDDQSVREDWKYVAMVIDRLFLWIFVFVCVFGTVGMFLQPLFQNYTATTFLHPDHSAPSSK
Sequence of α2β4 (P12389 28-511): as the sequence (P12389 28-511) above
Sequence of α2β4 (P12392 21-495): as the sequence (P12392 21-495) above
Sequence of α4β4 (P09483 31-630): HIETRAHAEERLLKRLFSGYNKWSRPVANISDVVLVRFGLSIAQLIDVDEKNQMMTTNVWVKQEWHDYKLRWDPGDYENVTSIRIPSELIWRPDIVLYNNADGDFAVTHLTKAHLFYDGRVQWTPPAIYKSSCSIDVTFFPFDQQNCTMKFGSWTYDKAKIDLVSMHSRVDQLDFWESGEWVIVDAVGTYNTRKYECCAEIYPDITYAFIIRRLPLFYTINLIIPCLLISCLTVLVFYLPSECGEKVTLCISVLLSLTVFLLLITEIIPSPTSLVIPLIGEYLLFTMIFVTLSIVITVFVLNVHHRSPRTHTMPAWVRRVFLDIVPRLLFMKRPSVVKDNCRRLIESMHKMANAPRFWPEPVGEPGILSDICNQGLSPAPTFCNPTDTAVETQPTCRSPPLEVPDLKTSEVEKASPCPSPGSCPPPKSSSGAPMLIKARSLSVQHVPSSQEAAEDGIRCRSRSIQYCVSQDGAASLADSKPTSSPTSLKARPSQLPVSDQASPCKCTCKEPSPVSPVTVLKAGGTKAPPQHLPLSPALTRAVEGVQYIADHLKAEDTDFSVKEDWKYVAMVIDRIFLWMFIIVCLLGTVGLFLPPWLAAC
Sequence of α4β4 (P12392 21-495): as the sequence (P12392 21-495) above
Sequence of α3β2 (P04757 26-499): as the sequence (P04757 26-499) above
Sequence of α3β2 (P12390 25-500): as the sequence (P12390 25-500) above
Sequence of D2R (P14416 whole entry): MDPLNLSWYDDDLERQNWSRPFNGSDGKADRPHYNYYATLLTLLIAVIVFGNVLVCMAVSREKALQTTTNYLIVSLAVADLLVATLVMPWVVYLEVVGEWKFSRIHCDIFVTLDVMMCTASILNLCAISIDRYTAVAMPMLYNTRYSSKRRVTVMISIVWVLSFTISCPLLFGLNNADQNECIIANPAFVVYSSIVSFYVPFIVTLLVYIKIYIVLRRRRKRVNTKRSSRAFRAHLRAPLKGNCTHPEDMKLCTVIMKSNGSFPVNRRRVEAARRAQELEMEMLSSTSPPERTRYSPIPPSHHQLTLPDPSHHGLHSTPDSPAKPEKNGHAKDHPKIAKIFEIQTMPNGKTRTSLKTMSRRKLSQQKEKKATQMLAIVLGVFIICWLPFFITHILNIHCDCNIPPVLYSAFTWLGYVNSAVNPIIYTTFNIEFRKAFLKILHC
Sequence of human D2 (long) (P14416 whole entry): as above

Compound: COc1ccccc1N1CCC2(CCN(CCSc3nnc(-c4ccccc4)n3C)CC2)CC1 [Compound 20, 3-(2-Methoxyphenyl)-9-(2-((4-methyl-5-phenyl-4H-1,2,4-triazol-3-yl)thio)ethyl)-3,9-diazaspiro[5.5]undecane]
D2/D3 ratio (D3R [1]): 100

Compound: COc1ccccc1N1CCC2(CCN(CCCSc3nnc(-c4ccccc4)n3C)C2)CC1 [Compound 34, 8-(2-Methoxyphenyl)-2-(3-((4-methyl-5-phenyl-4H-1,2,4-triazol-3-yl)thio)propyl)-2,8-diazaspiro[4.5]decane]
increase in receptor selectivity (D3R [1]; relative to 33): 2 fold

Compound: COc1ccccc1N1CCC2(CCN(CCCSc3nnc(-c4ccccc4)[nH]3)CC2)CC1 [Compound 17, 3-(2-Methoxyphenyl)-9-(3-((5-phenyl-4H-1,2,4-triazol-3-yl)thio)-propyl)-3,9-diazaspiro[5.5]undecane]
D2/D3 ratio (D3R [1]): 35

Compound: COc1ccccc1N1CCC2(CCNCC2)CC1 [4b]
D2/D3 ratio (D3R [1]): >2.5
Ki ± SEM D3R (D3R [1]; human D3 in HEK cells, [125I]IABN, mean ± SEM, at least three experiments): >39,319 nM
Ki ± SEM D2R (human D2 (long)): 99,379 ± 11,752 nM

Compound: COc1ccccc1N1CCC2(CCN(CCCSc3nnc(-c4ccccc4)n3C)CC2)CC1 [Compound 1, 3-(2-methoxyphenyl)-9-(3-((4-methyl-5-phenyl-4H-1,2,4-triazol-3-yl)thio)-propyl)-3,9-diazaspiro[5.5]undecane]
inhibition at 10 µM (α2β4): < 50%
inhibition at 10 µM (α2β2): < 50%
inhibition at 10 µM (α3β2): < 50%
Schild plot regression slope (D3R [2]): linear regression slope near unity
shift of dopamine dose-response curves (D3R [2]): limitless rightward shift
Ki [3]: > 1000 nM
inhibition at 10 µM (α4β4): < 50%

Compound: COc1ccccc1N1CCN(CCCSc2nnc(-c3ccccc3)n2C)CC1 [Compound 31]
inhibition at 10 µM (α2β4): < 50%
inhibition at 10 µM (α2β2): < 50%
inhibition at 10 µM (α3β2): < 50%
shift of dopamine dose-response curves (D3R [2]): limitless rightward shift
functional behavior at D3R (D3R [4]): weak agonist/antagonist
functional behavior at D2R (D2R): weak agonist/antagonist
inhibition at 10 µM (α3β4): < 50%
inhibition at 10 µM (α4β4): < 50%

Other lines, results leading:

D2/D3 ratio (D3R [1]): >197
Compound: 3-(2-((4-Methyl-5-phenyl-4H-1,2,4-triazol-3-yl)thio)propyl)-3,9-diazaspiro[5.5]undecane [Compound 6f]

D2/D3 ratio (D3R [1]): >3.6
Compound: CCCSc1nnc(-c2ccccc2)n1C [Compound 6a, 4-Methyl-3-phenyl-5-(propylthio)-4H-1,2,4-triazole]

D2/D3 ratio (D3R [1]): >9.6
Compound: CCCCN1CCC2(CC1)CCN(c1ccccc1OC)CC2 [Compound 5a, 3-Butyl-9-(2-methoxyphenyl)-3,9-diazaspiro[5.5]undecane]

D2/D3 ratio (D3R [1]): >1.1
Compound: CCCCN1CCC2(CCN(c3ccccc3OC)C2)C1 (stereo not shown) [Compound 5c, 2-Butyl-7-(2-methoxyphenyl)-2,7-diazaspiro[4.4]nonane]
